Test results taken from patent publication US10335372B2, “Compositions with modified nucleases targeted to viral nucleic acids and methods of use for prevention and treatment of viral diseases” (priority 2004, dated 2019).
“And” between values parts separate entries of the source, which are not always exact repeats. Equal values may be shown once. Read-outs that look alike come from different tables or passages of the source.

What was measured:
[1] = Cellular uptake of fluorescamine-labeled RNase I variants; type: cell-based; settings: fluorescamine label
[2] = system: ssRNA corona virus; experiment: Antiviral activity of labeled RNase I variants against ssRNA corona virus; type: cell-based
[3] = system: FMD virus; type: cell-based
[4] = system: dsRNA reovirus; experiment: Combination of human RNase I and human RNase III against reovirus in HEP-2 cells; type: cell-based; settings: 200 UA/ml
Method: The reovirus stock preparation used in this example has a titer of 5.5 log CPD50/0.1 ml.

[5] = system: West Nile virus; experiment: Antiviral effect of modified RNase I against West Nile virus in newborn rabbit kidney cells; settings: average of four replicate determinations
[6] = system: double-stranded RNA; settings: physiological salt conditions; double-stranded RNA substrate; cited from earlier work
[7] = system: FMDV of O-type; settings: guinea pig, in vivo
[8] = system: Influenza virus A/Aichi/2/68/H3N2; type: in vivo; settings: mice, single values

| Substance | Cellular Uptake [OD430 nm] [1] | Average Titer [2] | Titer [3] | Average Titer [4] [logTCD50/0.1 ml] | Titer ([4]; single values) | logTCD50/ml ([5]; 100 UA/ml) [logTCD50/ml] | logTCD50/ml ([5]; 250 UA/ml) [logTCD50/ml] | enzymatic activity relative to RNase A [6] | Survived [7] | duration of preventive effect after a single injection [7] | animals that developed FMD ([7]; sc) | Survived ([7]; record 2) | Titer in lungs ([8]; treatment i.n.) | Titer in lungs ([8]; treatment i.p.) |
| --- | --- | --- | --- | --- | --- | --- | --- | --- | --- | --- | --- | --- | --- | --- |
| *RNase I: fluorescamine-labeled human RNase I | 110 | 5.4 |  |  |  |  |  |  |  |  |  |  |  |  |
| RNase: recombinant / wild-type human RNase I (Examples 22, 30, 31) |  |  | 7.3; 7.1; 6.8 logTCD50/ml | 4.0 | 3.9 logTCD50/0.1 ml and 4.0 logTCD50/0.1 ml and 4.1 logTCD50/0.1 ml | 7.7 | 7.0 | about 500 times | 40 | at least 4 hours | 8 | 32 | 4.5 log TCD50 and 4.0 log TCD50 and 4.3 log TCD50 | 4.7 log TCD50 and 5.0 log TCD50 and 4.5 log TCD50 |
